According to US10328075B2, “Method of treatment and compounds for use therein” (Baker Heart and Diabetes Institute, priority 2015, dated 2019):
Read-outs that look alike come from different tables or passages of the source.

Tests used:
[1] = molecular target: T1, hFPR1 (Homo sapiens, UniProt P21462); assay: [Ca2+]i mobilization in FlpIn-CHO cells stably expressing hFPR1; format: cell-based; parameters: Calcium Rmax: unit not given here; conditions: for Emax: Flp-In-CHO
T1 construct: expressed in transfected cells
T1 sequence (P21462 1-350): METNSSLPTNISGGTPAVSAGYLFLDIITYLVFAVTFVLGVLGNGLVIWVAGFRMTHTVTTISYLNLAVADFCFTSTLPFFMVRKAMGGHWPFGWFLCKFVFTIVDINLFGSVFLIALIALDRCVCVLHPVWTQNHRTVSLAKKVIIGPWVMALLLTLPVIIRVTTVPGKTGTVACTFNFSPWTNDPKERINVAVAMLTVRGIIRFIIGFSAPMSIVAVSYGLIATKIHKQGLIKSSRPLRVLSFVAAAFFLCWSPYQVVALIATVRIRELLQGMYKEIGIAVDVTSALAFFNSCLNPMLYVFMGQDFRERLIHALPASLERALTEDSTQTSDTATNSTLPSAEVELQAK
Text: (§1) cDNDA construct and generation of stable cell lines: cDNA in pcDNA3.1^+ encoding the human formyl peptide receptors (FPR) subtypes, hFPR1, hFPR2 and hFPR3 was obtained from Invitrogen. The sequences for 3 hFPR receptors were amplified by PCR and cloned into the Gateway entry vector, pDONR202™, using the BP clonase enzyme mix, according to the manufactures' instructions (Invitrogen Inc, Carlsbad, Calif., USA). All hFPR receptors constructs in pDONR201™ were subsequently transfected into the pEF5/FRT/V5/dest vector using the LR clonase enzyme mix (Invitrogen). Receptor constructs (pEF5/FRT/V5/dest) were used to transfect FIp-In CHO cells as described previously (Valant C et al., PNAS, 2014). Cells were selected using 500 μg/mL hydromycin to generate cell lines stably expressing each receptor construct. Cells were maintained and cultured in high glucose DMEM supplemented with 10% FBS, 16 mM HEPES and 500 μg/mL hydromycin at 37° C. under a humidified atmosphere containing 5% CO2.
(§2) In the various assays described below, cells were plated into 96-well transparent cell culture plates at 4×10^4 cells per well, cultured overnight in serum-free media at 37° C. in 5% CO2.
(§3) Intracellular calcium mobilization: Intracellular calcium mobilization was assayed as described previously (Keov, P et al., 2014). Briefly, cells were washed once using HEPES buffered saline (HBS) solution [150 mM NaCl, 2.2 mM CaCl2, 2.6 mM KCl, 1.2 mM MgCl2, 10 mM HEPEs, 10 mM D-Glucose, 0.5% (w/v) bovine serum albumin (BSA) and 4 mM probenecid] at pH 7.4, then treated with Fluo-4-AM (1 μM, in HBS/BSA/probenecid) for 60 min at 37° C. in 5% CO2 in the dark. Cells were then further washed and placed in HBS/BSA/probenecid solution for ligation addition and assay using the FLEXstation 3 plate reader (Molecular Devices, Sunnyvale, Calif.). For all experiments, peak change in fluorescence signal was normalized to the cellular response to 100 μM ATP, which was used as an internal positive control.
(§4) Data analysis: All data were analysed using GraphPad Prism 6.0 (GraphPad Software, San Deigo, Calif., USA). Where appropriate, concentration-response curves were fitted to derive the maximal agonist effect (Emax), and the ligand potency estimate (pEC50), where Emax is the maximal possible response of the system (not the agonist), basal is the basal level of response in the absence of agonist, and pEC50 is the negative logarithm of the agonist concentration that gives a response halfway between Emax and basal.
(§5) In the present study, FIp-IN CHO cells and Gateway plasmid were obtained from Invitrogen Inc (Carlsbad, Calif., USA). The sequences for all 3 known human FPRs (hFPR1, hFPR2 and hFPR3) were amplified by PCR and cloned into the Gateway entry vector, pDONR202TM, using the BP clonase enzyme mix, according to the manufacturers' instructions. The hFPR pDONR201TM constructs were subsequently transfected into the pEF5/FRT/V5/dest vector using the LR clonase enzyme mix (Invitrogen). Receptor constructs (pEF5/FRT/V5/dest) were used to transfect FIp-IN CHO cells, as described previously (Valant et al. 2014). Cells were selected using 500 μg/mL hydromycin to generate cell lines stably expressing each human receptor construct. Cells were maintained and cultured in high glucose Dulbecco's modified eagle medium (DMEM) supplemented with 10% fetal bovine serum (FBS, from JRH Biosciences, Lenexa, Kans., USA) and 500 μg/mL hydromycin B (Invitrogen Inc) at 37° C. under a humidified atmosphere containing 5% CO2. Cell were plated into 96-well transparent cell culture plates at 4×10^4 cells per well, cultured overnight in serum-free media at 37° C. in 5% CO2.
(§6) (ii) Intracellular Ca2+ mobilization: Intracellular Ca2+ mobilization was determined in stably-transfected recombinant hFPR CHO cells, as described previously (Valant et al. 2014).

[2] = molecular target: T2, hFPR2 (Homo sapiens, UniProt P25090); assay: [Ca2+]i mobilization in FlpIn-CHO cells stably expressing hFPR2; format: cell-based; conditions: for Emax: Flp-In-CHO; for EC50: read-out: pEC50, [Ca^2+]i mobilization, hFPR2-Flpln-CHO (converted); for ΔLog(τ/KA), [Ca^2+]i mobilization, hFPR2-Flpln-CHO: normalized transduction coefficient, reference agonist Cmpd43; for Log(τ/KA), [Ca^2+]i mobilization, hFPR2-Flpln-CHO: transduction coefficient
T2 construct: expressed in transfected cells
T2 sequence (P25090 1-351): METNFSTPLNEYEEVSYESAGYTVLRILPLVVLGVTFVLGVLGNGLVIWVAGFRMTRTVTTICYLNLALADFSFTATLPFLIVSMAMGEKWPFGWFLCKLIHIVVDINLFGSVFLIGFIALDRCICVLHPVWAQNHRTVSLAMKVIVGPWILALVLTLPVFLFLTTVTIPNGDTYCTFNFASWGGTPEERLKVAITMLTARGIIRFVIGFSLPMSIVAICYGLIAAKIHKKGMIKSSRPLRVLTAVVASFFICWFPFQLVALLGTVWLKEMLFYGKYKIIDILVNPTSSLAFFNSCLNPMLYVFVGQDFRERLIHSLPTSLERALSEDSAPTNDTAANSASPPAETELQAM
Text: as §1, §2, §3, §4, §5, §6

[3] = Table 9, read-out: potency (pEC50) Ca^2+i, hFPR1-FlpInCHO cells in vitro (converted)
[4] = Table 1, percentage of [Ca^2+]i mobilization elicited by ATP, read-out: Emax (%), [Ca^2+]i mobilization, hFPR2-Flpln-CHO
[5] = Table 8, percent of response elicited by ATP, read-out: Emax, [Ca^2+]i mobilization, hFPR2-Flpln-CHO

Row | SMILES | Emax ([1]; Table 1, percentage of [Ca^2+]i mobilization elicited by ATP, read-out: Emax (%), [Ca^2+]i mobilization, hFPR1-Flpln-CHO) | Emax ([1]; Table 8, percent of response elicited by ATP, read-out: Emax, [Ca^2+]i mobilization, hFPR1-Flpln-CHO) | EC50 ([1]; Table 1, read-out: pEC50, [Ca^2+]i mobilization, hFPR1-Flpln-CHO (converted)) | ΔLog(τ/KA), [Ca^2+]i mobilization, hFPR1-Flpln-CHO ([1]; Table 8, normalized transduction coefficient, reference agonist Cmpd43) | EC50 ([1]; Table 8, read-out: pEC50, [Ca^2+]i mobilization, hFPR1-Flpln-CHO (converted)) | Log(τ/KA), [Ca^2+]i mobilization, hFPR1-Flpln-CHO ([1]; Table 8, transduction coefficient) | EC50 [1, 3] | Emax [2, 4] | Emax [2, 5] | EC50 ([2]; Table 1) | ΔLog(τ/KA), [Ca^2+]i mobilization, hFPR2-Flpln-CHO ([2]; Table 8) | EC50 ([2]; Table 8) | Log(τ/KA), [Ca^2+]i mobilization, hFPR2-Flpln-CHO ([2]; Table 8) | Calcium Rmax ([1]; Table 10, receptor not given, ND = Not detectable) | EC50 ([1]; Table 10, receptor not given, ND = Not detectable, read-out: Calcium pEC50 (converted)) | Potency range of Ca^2+ mobilization in hFPR2-CHO cells ([2]; in words)
1 | CC(C)C1C(NC(=O)Nc2ccc(Cl)cc2)C(=O)N(c2ccccc2)N1C (stereo not drawn) [BIDI-002] | 43 ± 6% | 43 ± 6% | 11 nM | 0.0 | 10 nM | 8.0 ± 0.2 | 11 nM | 51 ± 3% | 51 ± 3% | 20.9 nM | 0.0 | 20 nM | 7.7 ± 0.3 |  |  | 
2 | Cc1cc(Cc2cccnc2)c(=O)n(CC(=O)Nc2ccc(Cl)cc2)n1 [MIPS-0010396] |  |  |  |  |  |  | 33100 nM |  |  |  |  |  |  | 22 ± 2 | 33100 nM | 
3 | CSCC[C@H](NC=O)C(=O)N[C@@H](CC(C)C)C(=O)N[C@@H](Cc1ccccc1)C(=O)O [fMLP, N-formyl-Met-Leu-Phe] |  |  |  |  |  |  |  | 38 ± 4% | 38 ± 4% |  | −2.2 ± 0.3 |  | 5.4 ± 0.1 |  |  | micromolar range
